Assay: Determination of useful cationic compounds: dye mixed with organoclay, clean clay, quat or alone in water, centrifuged, examined visually
Format: physicochemical
Settings: for Ionic character (cationic or anionic) concluded from the visual results: conclusion from Test Tubes 1-4
Description: At the outset of the method of the present invention, it must first be determined if a particular compound or molecule will be able to undergo the method of enhancing its dispersibility and thereby its cationic properties as disclosed herein. Thus, a determination must be made (for example, if the ionic character of a certain compound is unknown) whether or not the ion or molecule comprises an cationic portion that will ion exchange onto the surface of a substrate such as a clay or an organoclay. Thus, the molecule or ion can be tested in order to determine whether it has a cationic character (and thus can undergo the present method) or an anionic character or a neutral character. In testing certain molecules or ions, the procedure described below was employed.
Using Jarocol Straw Yellow dye as a representative example, four 1 mg samples of the dye were weighed and placed in 4 test tubes.
Subsequently, 10 mL of water were added to each of the four test tubes, and all of the samples were mixed well for 30 seconds. The samples from each of the test tubes were then centrifuged for 15 minutes in a laboratory scale centrifuge.
Next, the resulting centrifuged samples were examined and analyzed (by being compared to the control sample) to determine whether the Jarocol Straw Yellow dye reacted with the organoclay, the clean clay, or the quat, so that it could then be decided if Jarocol Straw Yellow dye has the requisite cationic character to ion exchange onto the surface of a clay and thereby have increased dispersibility in various application systems.
The analysis herein was performed visually, since the six samples tested were dyes. However, non-dye samples may be analyzed through infrared spectroscopy, differential scanning calorimetry (DSC), gas chromatography, UV spectroscopy, thermogravimetric analysis, or the like. For example, for a non-dye sample, the clay may be separated from the water, both parts may be taken to dryness, and the IR spectrum of each may be recorded.
Just as Jarocol Straw Yellow dye was tested using the four test tubes, the other five dye samples were similarly tested.

Row | Compound | Ionic character (cationic or anionic) concluded from the visual results | Test Tube 4 (Control, sample only) visual result (1 mg dye only, 10 mL water, mixed 30 seconds, centrifuged 15 minutes) | Test Tube 3 (10 mg Quat) visual result (1 mg dye + 10 mg quat, 10 mL water, mixed 30 seconds, centrifuged 15 minutes)
1 | O=C([O-])c1ccccc1-c1c2cc(Br)c(=O)c(Br)c-2oc2c(Br)c([O-])c(Br)cc12.[Na+].[Na+] [D&C Red No. 22 dye] | exhibit anionic character to some extent | – | –
2 | CCN(Cc1cccc(S(=O)(=O)[O-])c1)c1ccc(C(=C2C=CC(=[N+](CC)Cc3cccc(S(=O)(=O)[O-])c3)C=C2)c2ccccc2S(=O)(=O)[O-])cc1.[Na+].[Na+] [FD&C Blue No. 1 dye] | exhibit anionic character to some extent | – | –
3 | O=C([O-])C1=NN(c2ccc(S(=O)(=O)[O-])cc2)C(=O)C1N=Nc1ccc(S(=O)(=O)[O-])cc1.[Na+].[Na+].[Na+] (stereo not shown) [FD&C Yellow No. 5 dye] | exhibit anionic character to some extent | – | –

Second part, led by results:

Row | Ionic character (cationic or anionic) concluded from the visual results | Test Tube 4 (Control, sample only) visual result (1 mg dye only, 10 mL water, mixed 30 seconds, centrifuged 15 minutes) | Compound | Test Tube 3 (10 mg Quat) visual result (1 mg dye + 10 mg quat, 10 mL water, mixed 30 seconds, centrifuged 15 minutes)
4 | have the requisite cationic character | – | CN(C)c1ccc2nc3ccc(=[N+](C)C)cc-3sc2c1 [Methylene Blue, laboratory reagent dye, methylene blue] | –
5 | anionic in nature | Water was red | Cc1ccc(N=Nc2c([O-])c(C(=O)O)cc3ccccc23)c(S(=O)(=O)[O-])c1.[Na+].[Na+] [Lithol Rubine B] | formed a highly insoluble reaction product with the quat

— US20040185109A1, “Method for incorporating cationic molecules into a substrate for increasing dispersibility of cationic molecules” (priority 2002, published 2004)
